Assay results published in PMC10145973, “Genomic Insights into Bacterial Resistance to Proline-Rich Antimicrobial Peptide Bac7” (Membranes, 2023).
Converted amounts (≈) assume the structure as drawn. “And” between values parts separate entries of the source, which are not always exact repeats. Equal entries are not always repeated. Where two headings read alike, the source gives them in different places. Where a SMILES comes first, the peptide text is derived from it. Bridges are numbered along the chain shown (N, C = ends). [ ]: non-standard residue; d: D form. The star is where a group is joined. X1 = CC[C@H](C)CCCCC(=O)*; Dab = NCC[C@H](N)C(=O)O

How the values were obtained:
E. coli MDR 1057 WT [1] = experiment: microbe, parasite or virus in culture; conditions: Escherichia coli, MDR1057WT, 24 h, read-out: Minimum Inhibitory Concentration, WT
E. coli MDR 1057 B2 [2] = experiment: microbe, parasite or virus in culture; conditions: Escherichia coli, MDR1057B2, 24 h, read-out: Minimum Inhibitory Concentration, B2
E. coli MDR 1057 B3 [3] = experiment: microbe, parasite or virus in culture; conditions: Escherichia coli, MDR1057B3, 24 h, read-out: Minimum Inhibitory Concentration, B3
E. coli MDR 1057 P1 [4] = experiment: microbe, parasite or virus in culture; conditions: Escherichia coli, MDR1057P1, 24 h, read-out: Minimum Inhibitory Concentration, P1
E. coli MDR 1057 WT [5] = conditions: Table 2; broth microdilution in MHB (medium ±0.9% NaCl not given), 10^6 CFU/mL suspension, agents diluted in 0.1% BSA, 24 h, 37 °C, visible turbidity; median of at least three independent experiments in triplicate
E. coli MDR 1057 B2 [6] = conditions: Table 2; broth microdilution in MHB (medium ±0.9% NaCl not given), 0.1% BSA, 24 h, 37 °C; median of at least three independent experiments in triplicate
E. coli MDR 1057 B3 [7] = conditions: Table 2; broth microdilution in MHB (medium ±0.9% NaCl not given), 0.1% BSA, 24 h, 37 °C; median of at least three independent experiments in triplicate
E. coli MDR 1057 P1 [8] = conditions: Table 2, broth microdilution in MHB (medium ±0.9% NaCl not given), 0.1% BSA, 24 h, 37 °C, median of at least three independent experiments in triplicate
[9] = tested on: resistant Salmonella enterica strain (pmrB mutations); conditions: cited from earlier work
[10] = tested on: extensively drug-resistant Klebsiella pneumoniae isolate; design: method as in PMID 30445429; conditions: serially passaged in the presence of the agent; cited from earlier work
M. tuberculosis H37Rv = conditions: cited from earlier work

Compound	MIC (E. coli MDR 1057 WT [1]) [µM]	MIC (E. coli MDR 1057 B2 [2]) [µM]	MIC (E. coli MDR 1057 B3 [3]) [µM]	MIC (E. coli MDR 1057 P1 [4]) [µM]	further results
CN[C@@H]1[C@H](O)[C@H](NC)[C@H]2O[C@@]3(O)C(=O)C[C@@H](C)O[C@H]3O[C@@H]2[C@H]1O [Spectinomycin]	32 (≈ 10.6 µg/mL)	32 (≈ 10.6 µg/mL)	32 (≈ 10.6 µg/mL)	64 (≈ 21.3 µg/mL)	–
CC1(C)S[C@@H]2[C@H](NC(=O)[C@H](N)c3ccccc3)C(=O)N2[C@H]1C(=O)O [Ampicillin]	256 (≈ 89.4 µg/mL)	256 (≈ 89.4 µg/mL)	256 (≈ 89.4 µg/mL)	256 (≈ 89.4 µg/mL)	–
CC[C@H](C)CCCCC(=O)N[C@@H](CCN)C(=O)N[C@H](C(=O)N[C@@H](CCN)C(=O)N[C@H]1CCNC(=O)[C@H]([C@@H](C)O)NC(=O)[C@H](CCN)NC(=O)[C@H](CCN)NC(=O)[C@H](CC(C)C)NC(=O)[C@@H](Cc2ccccc2)NC(=O)[C@H](CCN)NC1=O)[C@@H](C)O [Polymyxin B] (X1-[Dab]T[Dab][Dab][Dab][dF]L[Dab][Dab]T; lactam 4-C (inferred); N-terminus assumed)	–	–	–	–	Minimum Inhibitory Concentration, WT (E. coli MDR 1057 WT [5]): 0.125 µM; Minimum Inhibitory Concentration, B2 (E. coli MDR 1057 B2 [6]): 0.125 µM; Minimum Inhibitory Concentration, B3 (E. coli MDR 1057 B3 [7]): 8 µM; Minimum Inhibitory Concentration, P1 (E. coli MDR 1057 P1 [8]; listed as PmxB): > 128 µM; final MIC relative to initial MIC, the P2 strain (E. coli MDR 1057 strain; PmxB selection): 32 × MIC; final MIC relative to initial MIC, the P1 strain (E. coli MDR 1057 strain; PmxB selection, MHB + 0.9% NaCl, 25 passages): 2048 × MIC; final MIC value, the P1 strain (E. coli MDR 1057 strain; PmxB selection, MHB + 0.9% NaCl, 25 passages, then three passages on drug-free agar): 128 µM; final MIC value, the P2 strain (E. coli MDR 1057 strain; PmxB selection, after final passage and three passages on drug-free agar): 2 µM; MIC at start of the selection experiment (E. coli MDR 1057 strain; both repetitions (P1 and P2), before selection): 0.0625 µM; MIC after a single pmrB mutation ([9]; listed as PmxB): up to 3 µg/mL and ≤ 4 µM; increase in MIC after serial passage [10]: ≥ 1000 fold
CO/N=C(\C(=O)N[C@@H]1C(=O)N2C(C(=O)O)=C(CSc3nc(=O)c(=O)[nH]n3C)CS[C@H]12)c1csc(N)n1 [Ceftriaxone]	128 (≈ 71 µg/mL)	128 (≈ 71 µg/mL)	128 (≈ 71 µg/mL)	128 (≈ 71 µg/mL)	–
O=C(N[C@H](CO)[C@H](O)c1ccc([N+](=O)[O-])cc1)C(Cl)Cl [Chloramphenicol]	8 (≈ 2.59 µg/mL)	16 (≈ 5.17 µg/mL)	8 (≈ 2.59 µg/mL)	16 (≈ 5.17 µg/mL)	–
O=C(O)c1cn(C2CC2)c2cc(N3CCNCC3)c(F)cc2c1=O [Ciprofloxacin]	–	128 (≈ 42.4 µg/mL)	–	128 (≈ 42.4 µg/mL)	–
CC[C@H](C)[C@H](NC(=O)[C@H](CCCCN)NC(=O)[C@H](CCC(=O)O)NC(=O)[C@H](CCCCN)NC(=O)[C@H](CO)NC(=O)[C@H](CCCCN)NC(=O)[C@H](CCCNC(=N)N)NC(=O)[C@H](Cc1ccccc1)NC(=O)[C@H](Cc1ccccc1)NC(=O)[C@H](CC(=O)O)NC(=O)CNC(=O)[C@H](CC(C)C)NC(=O)[C@@H](N)CC(C)C)C(=O)NCC(=O)N[C@@H](CCCCN)C(=O)N[C@@H](CCC(=O)O)C(=O)N[C@@H](Cc1ccccc1)C(=O)N[C@@H](CCCCN)C(=O)N[C@@H](CCCNC(=N)N)C(=O)N[C@H](C(=O)N[C@H](C(=O)N[C@@H](CCC(N)=O)C(=O)N[C@@H](CCCNC(=N)N)C(=O)N[C@H](C(=O)N[C@@H](CCCCN)C(=O)N[C@@H](CC(=O)O)C(=O)N[C@@H](Cc1ccccc1)C(=O)N[C@@H](CC(C)C)C(=O)N[C@@H](CCCNC(=N)N)C(=O)N[C@@H](CC(N)=O)C(=O)N[C@@H](CC(C)C)C(=O)N[C@H](C(=O)N1CCC[C@H]1C(=O)N[C@@H](CCCNC(=N)N)C(=O)N[C@H](C(=O)N[C@@H](CCC(=O)O)C(=O)N[C@@H](CO)C(=O)O)[C@@H](C)O)C(C)C)[C@@H](C)CC)C(C)C)[C@@H](C)CC [LL-37]	–	–	–	–	Minimum Inhibitory Concentration, WT (E. coli MDR 1057 WT [5]): 4 µM; Minimum Inhibitory Concentration, B2 (E. coli MDR 1057 B2 [6]): 2 µM; Minimum Inhibitory Concentration, B3 (E. coli MDR 1057 B3 [7]): 2 µM; Minimum Inhibitory Concentration, P1 (E. coli MDR 1057 P1 [8]): 1 µM
PR-39	–	–	–	–	concentration inhibiting growth (M. tuberculosis H37Rv): about 10 µM
CC[C@H]1OC(=O)[C@H](C)[C@@H](O[C@H]2C[C@@](C)(OC)[C@@H](O)[C@H](C)O2)[C@H](C)[C@@H](O[C@@H]2O[C@H](C)C[C@H](N(C)C)[C@H]2O)[C@](C)(O)C[C@@H](C)/C(=N\OCOCCOC)[C@H](C)[C@@H](O)[C@]1(C)O [Roxithromycin]	256 (≈ 214 µg/mL)	256 (≈ 214 µg/mL)	256 (≈ 214 µg/mL)	> 256	–
CC(C)[C@@H]1NC(=O)[C@H](Cc2ccc(O)cc2)NC(=O)[C@H](Cc2c[nH]c3ccccc23)NC(=O)[C@@H](NC(=O)[C@H](Cc2ccccc2)NC(=O)CN)CSSC[C@@H](C(=O)N[C@@H](CC(N)=O)C(=O)O)NC(=O)[C@H](CCCNC(=N)N)NC(=O)[C@H](CCCNC(=N)N)NC(=O)[C@H](Cc2ccc(O)cc2)NC(=O)[C@@H]2CSSC[C@H](NC1=O)C(=O)N[C@@H](C)C(=O)N[C@@H](CCCNC(=N)N)C(=O)N[C@@H](CCCNC(=N)N)C(=O)N[C@@H](CC(N)=O)C(=O)NCC(=O)N[C@@H](C)C(=O)N[C@@H](CCCNC(=N)N)C(=O)N[C@@H](C(C)C)C(=O)N2 [AA139] (H-GFCWYVCARRNGARVCYRRCN-OH; disulfide 3-20, 7-16 (inferred))	–	–	–	–	Minimum Inhibitory Concentration, WT (E. coli MDR 1057 WT [5]): 0.25 µM; Minimum Inhibitory Concentration, B2 (E. coli MDR 1057 B2 [6]): 0.25 µM; Minimum Inhibitory Concentration, B3 (E. coli MDR 1057 B3 [7]): 1 µM; Minimum Inhibitory Concentration, P1 (E. coli MDR 1057 P1 [8]): 0.5 µM
colistin	–	–	–	–	MIC after a single pmrB mutation [9]: up to 3 µg/mL and ≤ 4 µM; increase in MIC after serial passage [10]: ≥ 1000 fold
CO[C@H]1/C=C/O[C@@]2(C)Oc3c(C)c(O)c4c(O)c(c(/C=N/N5CCN(C)CC5)c(O)c4c3C2=O)NC(=O)/C(C)=C\C=C\[C@H](C)[C@H](O)[C@@H](C)[C@@H](O)[C@@H](C)[C@H](OC(C)=O)[C@@H]1C [Rifampicin]	64 (≈ 52.7 µg/mL)	128 (≈ 105 µg/mL)	64 (≈ 52.7 µg/mL)	64 (≈ 52.7 µg/mL)	–
CC(C)C[C@H](NC(=O)[C@H](CCCNC(=N)N)NC(=O)CNC(=O)CNC(=O)[C@@H](N)CCCNC(=N)N)C(=O)N[C@H]1CSSC[C@@H](C(=O)N[C@H](C(=O)NCC(=O)N[C@@H](CCCNC(=N)N)C(=O)O)C(C)C)NC(=O)[C@H](C(C)C)NC(=O)[C@@H]2CSSC[C@H](NC(=O)[C@H](Cc3ccc(O)cc3)NC1=O)C(=O)N[C@@H](CCCNC(=N)N)C(=O)N[C@@H](CCCNC(=N)N)C(=O)N[C@@H](CCCNC(=N)N)C(=O)N[C@@H](Cc1ccccc1)C(=O)N2 [Protegrin-1] (H-RGGRLCYCRRRFCVCVGR-OH; disulfide 6-15, 8-13; N-terminus and C-terminus assumed)	–	–	–	–	Minimum Inhibitory Concentration, WT (E. coli MDR 1057 WT [5]): 0.25 µM; Minimum Inhibitory Concentration, B2 (E. coli MDR 1057 B2 [6]): 0.25 µM; Minimum Inhibitory Concentration, B3 (E. coli MDR 1057 B3 [7]): 0.25 µM; Minimum Inhibitory Concentration, P1 (E. coli MDR 1057 P1 [8]): 0.25 µM
CNC(C)C1CCC(N)C(OC2C(N)CC(N)C(OC3OCC(C)(O)C(NC)C3O)C2O)O1 (centres unmarked) [Gentamicin]	2 (≈ 0.955 µg/mL)	2 (≈ 0.955 µg/mL)	2 (≈ 0.955 µg/mL)	4 (≈ 1.91 µg/mL)	–
